The structures appear in SMILES notation. Calls of active or inactive are those of the source.

The target of test [1] is Tyrosyl-DNA phosphodiesterase 2 (Homo sapiens, UniProt O95551). Put plainly: human TDP2 enzyme inhibitors, dose response, biochemical, epi absorbance, IC50 (AID 743297).
A further test in a line: cells. Format: functional, cell-based.
The nature of test [2]: C. albicans growth with fluconazole, confirmation, fluorescence, retest (AID 2467). The test is classed as functional, cell-based.
In a further test the target is T1, Exodeoxyribonuclease V (Escherichia coli (strain K12), UniProt P04993+P07648+P08394).
T1 sequence (P04993 whole entry): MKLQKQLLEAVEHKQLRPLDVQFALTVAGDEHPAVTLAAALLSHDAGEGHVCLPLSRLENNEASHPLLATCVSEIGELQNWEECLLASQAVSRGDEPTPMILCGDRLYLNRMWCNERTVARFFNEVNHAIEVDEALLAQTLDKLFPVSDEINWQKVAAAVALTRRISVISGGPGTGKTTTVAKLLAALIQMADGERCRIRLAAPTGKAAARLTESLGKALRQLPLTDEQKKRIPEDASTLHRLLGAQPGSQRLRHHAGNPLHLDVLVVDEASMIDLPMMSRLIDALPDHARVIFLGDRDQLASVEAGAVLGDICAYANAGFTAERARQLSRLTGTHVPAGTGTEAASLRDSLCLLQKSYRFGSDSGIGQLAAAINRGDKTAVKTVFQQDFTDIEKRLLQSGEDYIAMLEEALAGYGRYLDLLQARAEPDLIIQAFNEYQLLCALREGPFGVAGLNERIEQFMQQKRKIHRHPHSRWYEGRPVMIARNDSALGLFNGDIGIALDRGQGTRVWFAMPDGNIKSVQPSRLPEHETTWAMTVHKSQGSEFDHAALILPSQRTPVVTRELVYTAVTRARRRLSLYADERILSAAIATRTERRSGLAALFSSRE
T1 sequence (P07648 whole entry): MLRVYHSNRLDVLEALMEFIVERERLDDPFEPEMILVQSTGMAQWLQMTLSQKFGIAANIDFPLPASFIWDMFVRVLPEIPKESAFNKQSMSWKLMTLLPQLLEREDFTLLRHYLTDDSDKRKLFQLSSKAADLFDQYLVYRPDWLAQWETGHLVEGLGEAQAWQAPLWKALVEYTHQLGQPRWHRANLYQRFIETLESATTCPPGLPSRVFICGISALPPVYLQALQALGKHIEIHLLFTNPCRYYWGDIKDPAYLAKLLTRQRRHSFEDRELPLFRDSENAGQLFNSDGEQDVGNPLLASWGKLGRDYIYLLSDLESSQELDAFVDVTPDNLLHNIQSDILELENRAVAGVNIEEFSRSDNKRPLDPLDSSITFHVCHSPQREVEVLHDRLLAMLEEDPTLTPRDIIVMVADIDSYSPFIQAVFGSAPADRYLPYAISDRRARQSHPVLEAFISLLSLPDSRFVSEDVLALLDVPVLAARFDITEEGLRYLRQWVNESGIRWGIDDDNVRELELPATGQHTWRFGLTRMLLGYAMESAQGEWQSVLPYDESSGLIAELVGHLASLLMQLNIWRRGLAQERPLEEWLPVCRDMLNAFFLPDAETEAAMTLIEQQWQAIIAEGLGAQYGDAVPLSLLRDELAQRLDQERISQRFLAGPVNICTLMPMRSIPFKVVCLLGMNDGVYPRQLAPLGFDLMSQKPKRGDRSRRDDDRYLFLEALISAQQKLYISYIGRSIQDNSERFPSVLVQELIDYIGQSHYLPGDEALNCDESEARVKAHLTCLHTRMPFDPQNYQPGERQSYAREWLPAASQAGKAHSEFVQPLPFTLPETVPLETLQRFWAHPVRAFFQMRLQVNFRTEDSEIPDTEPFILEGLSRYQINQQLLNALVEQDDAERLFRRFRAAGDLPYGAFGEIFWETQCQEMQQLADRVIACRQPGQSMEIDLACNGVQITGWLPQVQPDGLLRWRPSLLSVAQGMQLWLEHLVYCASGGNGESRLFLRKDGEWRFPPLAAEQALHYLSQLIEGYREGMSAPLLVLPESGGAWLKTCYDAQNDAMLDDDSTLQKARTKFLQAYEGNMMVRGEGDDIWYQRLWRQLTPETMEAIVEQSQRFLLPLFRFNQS
T1 sequence (P08394 whole entry): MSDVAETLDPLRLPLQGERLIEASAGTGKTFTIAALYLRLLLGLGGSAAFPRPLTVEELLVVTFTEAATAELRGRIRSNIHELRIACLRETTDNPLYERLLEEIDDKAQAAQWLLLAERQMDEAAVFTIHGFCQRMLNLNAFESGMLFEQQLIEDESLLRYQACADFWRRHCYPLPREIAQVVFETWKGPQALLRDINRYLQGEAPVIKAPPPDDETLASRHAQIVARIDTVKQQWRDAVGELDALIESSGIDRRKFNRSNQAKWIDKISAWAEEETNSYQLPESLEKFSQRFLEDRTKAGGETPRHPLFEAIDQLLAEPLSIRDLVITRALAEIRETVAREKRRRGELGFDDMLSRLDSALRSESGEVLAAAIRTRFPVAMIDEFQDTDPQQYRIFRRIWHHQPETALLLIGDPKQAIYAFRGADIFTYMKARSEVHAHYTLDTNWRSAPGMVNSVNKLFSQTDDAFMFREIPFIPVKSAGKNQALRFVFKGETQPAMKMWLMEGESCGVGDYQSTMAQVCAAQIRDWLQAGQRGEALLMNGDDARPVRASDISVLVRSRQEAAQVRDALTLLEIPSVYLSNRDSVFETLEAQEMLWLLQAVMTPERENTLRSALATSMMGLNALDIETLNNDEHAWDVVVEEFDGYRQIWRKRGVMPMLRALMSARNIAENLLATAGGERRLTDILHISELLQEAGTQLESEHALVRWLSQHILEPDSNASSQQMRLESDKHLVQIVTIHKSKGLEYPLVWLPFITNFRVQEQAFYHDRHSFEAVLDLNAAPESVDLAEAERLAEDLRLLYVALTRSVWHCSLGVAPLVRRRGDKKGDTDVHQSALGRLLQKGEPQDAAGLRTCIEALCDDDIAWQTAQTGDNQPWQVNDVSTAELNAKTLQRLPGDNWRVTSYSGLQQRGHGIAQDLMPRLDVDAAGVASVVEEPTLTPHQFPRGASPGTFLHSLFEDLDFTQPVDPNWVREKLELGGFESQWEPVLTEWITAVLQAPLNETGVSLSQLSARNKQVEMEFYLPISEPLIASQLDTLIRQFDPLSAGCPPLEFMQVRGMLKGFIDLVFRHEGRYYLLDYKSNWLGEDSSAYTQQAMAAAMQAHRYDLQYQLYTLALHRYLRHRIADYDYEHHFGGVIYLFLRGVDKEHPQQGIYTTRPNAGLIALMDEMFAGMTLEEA
Put plainly: E. coli RecBCD inhibitors, dose response, counter-screen for AddAB inhibitor project, absorbance, V66 E. coli, mutant T4 phage (AID 492957). The test is classed as functional, cell-based, Escherichia coli str. K-12 substr. MG1655. For orientation: Counterscreens check selectivity or assay interference.

Test [3] is described as follows: Counterscreen for AddAB inhibitors: absorbance-based bacterial cell-based high throughput dose response assay for inhibitors of bacterial viability. [Related pubchem assays (depositor defined):AID435030, AID449728, AID449731, AID488942, AID488955, AID488956]. The test is classed as functional.

Chain of Tyrosyl-DNA phosphodiesterase 2 (O95551 whole entry): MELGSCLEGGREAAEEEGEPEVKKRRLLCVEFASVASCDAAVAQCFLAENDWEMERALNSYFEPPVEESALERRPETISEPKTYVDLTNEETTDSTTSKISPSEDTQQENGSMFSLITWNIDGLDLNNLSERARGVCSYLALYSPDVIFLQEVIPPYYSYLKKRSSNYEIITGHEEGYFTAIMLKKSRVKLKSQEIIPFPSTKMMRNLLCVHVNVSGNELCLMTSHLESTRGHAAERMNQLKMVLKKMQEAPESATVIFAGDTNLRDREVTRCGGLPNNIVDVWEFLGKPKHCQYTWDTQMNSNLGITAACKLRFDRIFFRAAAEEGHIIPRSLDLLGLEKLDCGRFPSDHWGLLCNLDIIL

The term IC50 denotes the concentration that gives 50% inhibition. On to `CC(C)N(C(=O)Nc1ccc2nsnc2c1)C(C)C`, for which the half-maximal inhibitory concentration (IC50) in test [1] is 8.96 µM (active).
The same measure, in the same setting: under `NS(=O)(=O)c1ccc(NC2=CC(=O)C(=O)c3ccccc32)cc1` stands 5.59 µM (active).
One may read the EC50 as the concentration that produces a half-maximal response. As to `CCC(=O)NC(c1ccccc1OC)c1ccc2cccnc2c1O` (stereo not given), the values for the EC50 (in “cells”; in test [2]) were 7.23 µM (active) and 1.48 µM (active), respectively. The IC50 (at Exodeoxyribonuclease V; in test [3]) was > 119 µM (inactive) throughout.
For the compound `O=C(N/N=C/c1ccc(O)cc1O)c1ccc(CN2C(=O)c3cccc4cccc2c34)cc1`, the EC50 was 31 µM (active) in “cells” and 0.384 µM (active) in test [2]. Also, the IC50 (at Exodeoxyribonuclease V; in test [3]) was > 119 µM (inactive) in each case.

For the origin of these results see ChEMBL document CHEMBL1201862, “PubChem BioAssay data set” (2004).
